Legend:
[1] = system: transgenic Arabidopsis plants overexpressing Barley HPPD (Seq ID: 2); assay: Arabidopsis growth inhibition in 48-well plates, line overexpressing Barley HPPD; type: in vivo, Arabidopsis thaliana; settings: Barley (Seq ID: 2) overexpression line; plant growth IC50 of transgenic divided by that of wildtype plants
Source text: (§1) Various methods for the production of stably transformed plants are well known in the art. Coumarone-derivative herbicide tolerant soybean (Glycine max) or corn (Zea mays) plants can be produced by a method described by Olhoft et al. (US patent 2009/0049567). Briefly, HPPD or HST encoding polynucleotides are cloned into a binary vector using standard cloning techniques as described by Sambrook et al. (Molecular cloning (2001) Cold Spring Harbor Laboratory Press). The final vector construct contains an HPPD or HST encoding sequence flanked by a promoter sequence (e.g. the ubiquitin promoter (PcUbi) sequence) and a terminator sequence (e.g. the nopaline synthase terminator (NOS) sequence) and a resistance marker gene cassette (e.g. AHAS) (FIG. 2). Optionally, the HPPD or HST gene can provide the means of selection. Agrobacterium-mediated transformation is used to introduce the DNA into soybean's axillary meristem cells at the primary node of seedling explants. After inoculation and co-cultivation with Agrobacteria, the explants are transferred to shoot induction medium without selection for one week. […]
(§2) Depending on the species, the plants are kept at 10-25° C. or 20-35° C. […] During this time, the plants are tended and their response to the individual treatments is evaluated. […] Tolerance to coumarone-derivative herbicides can also be assessed in Arabidopsis. […]

[2] = system: transgenic Arabidopsis plants overexpressing Synechocystis HPPD (Seq ID: 20); assay: Arabidopsis growth inhibition in 48-well plates, line overexpressing Synechocystis HPPD; type: in vivo, Arabidopsis thaliana; settings: Synechocystis (Seq ID: 20) overexpression line; plant growth IC50 of transgenic divided by that of wildtype plants
Source text: as §1, §2

[3] = system: transgenic soybean plants, Arabidopsis I393L L385V, event SDS-9908; assay: Greenhouse testing of transgenic soybean plants, Arabidopsis I393L L385V; type: in vivo, Glycine max; settings: soybean SDS-9908, 5 days after herbicide treatment, average of 8 T1
Source text: (§3) Various methods for the production of stably transformed plants are well known in the art. Coumarone-derivative herbicide tolerant soybean (Glycine max) or corn (Zea mays) plants can be produced by a method described by Olhoft et al. (US patent 2009/0049567). Briefly, HPPD or HST encoding polynucleotides are cloned into a binary vector using standard cloning techniques as described by Sambrook et al. (Molecular cloning (2001) Cold Spring Harbor Laboratory Press). The final vector construct contains an HPPD or HST encoding sequence flanked by a promoter sequence (e.g. the ubiquitin promoter (PcUbi) sequence) and a terminator sequence (e.g. the nopaline synthase terminator (NOS) sequence) and a resistance marker gene cassette (e.g. AHAS) (FIG. 2). Optionally, the HPPD or HST gene can provide the means of selection. Agrobacterium-mediated transformation is used to introduce the DNA into soybean's axillary meristem cells at the primary node of seedling explants. After inoculation and co-cultivation with Agrobacteria, the explants are transferred to shoot induction medium without selection for one week. The explants are subsequently transferred to shoot induction medium with 1-3 μM imazapyr (Arsenal) for 3 weeks to select for transformed cells. Explants with healthy callus/shoot pads at the primary node are then transferred to shoot elongation medium containing 1-3 μM imazapyr until a shoot elongates or the explant dies. After regeneration, transformants are transplanted to soil in small pots, placed in growth chambers (16 hr day/8 hr night; 25° C. day/23° C. night; 65% relative humidity; 130-150 mE m−2 s−1) and subsequently tested for the presence of the T-DNA via Taqman analysis. After a few weeks, healthy, transgenic positive, single copy events are transplanted to larger pots and allowed to grow in the growth chamber. Transformation of corn plants is done by a method described by McElver and Singh (WO 2008/124495). Plant transformation vector constructs containing HPPD or HST sequences are introduced into maize immature embryos via Agrobacterium-mediated transformation. Transformed cells are selected in selection media supplemented with 0.5-1.5 μM imazethapyr for 3-4 weeks. Transgenic plantlets are regenerated on plant regeneration media and rooted afterwards. Transgenic plantlets are subjected to TaqMan analysis for the presence of the transgene before being transplanted to potting mixture and grown to maturity in greenhouse. Arabidopsis thaliana is transformed with HPPD or HST sequences by floral dip method as described by McElver and Singh (WO 2008/124495). Transgenic Arabidopsis plants are subjected to Tag Man analysis for analysis of the number of integration loci. Transformation of Oryza sativa (rice) are done by protoplast transformation as described by Peng et al. (U.S. Pat. No. 6,653,529)
(§4) Transgenic plants expressing heterologous HPPD or HST enzymes are tested for tolerance against coumarone-derivative herbicides in greenhouse experiments.
(§5) For post emergence treatment, the test plants are first grown to a height of 3 to 15 cm, depending on the plant habit, and only then treated with the herbicides. For this purpose, the test plants are either sown directly and grown in the same containers, or they are first grown separately and transplanted into the test containers a few days prior to treatment.
(§6) Depending on the species, the plants are kept at 10-25° C. or 20-35° C. The test period extends over 3 weeks. During this time, the plants are tended and their response to the individual treatments is evaluated. […] Tolerance to coumarone-derivative herbicides can also be assessed in Arabidopsis. In this case transgenic Arabidopsis thaliana plants are assayed for improved tolerance to coumarone-derivative herbicides in 48-well plates. Seeds are surface sterilized by stirring for 5 min in ethanol+water (70+30 by volume), rinsing one time with ethanol+water (70+30 by volume) and two times with a sterile, deionized water. […]

[4] = system: transgenic corn plants, Arabidopsis M335H, event SDM-71923; assay: Greenhouse testing of transgenic corn plants, Arabidopsis M335H; type: in vivo, Zea mays; settings: corn SDM-71923, 5 days after herbicide treatment, average of 8 T1
Source text: as §3, §4, §5, §6

CC1=NOC(c2c(Cl)ccc(C3=C(O)c4ncccc4C(C)(C)S3(=O)=O)c2Cl)C1 (stereo not shown) [Inhibitor 1, 7-[2,4-dichloro-3-(3-methyl-4,5-dihydroisoxazol-5-yl)phenyl]-5,5-dimethyl-6,6-dioxo-thiopyrano[4,3-b]pyridin-8-ol]
Tolerance factor [1]: 10 | Tolerance factor [2]: 1

CC1(C)c2cccnc2C(O)=C(c2ccc(Cl)nc2Cl)S1(=O)=O [Inhibitor 2, 7-(2,6-dichloro-3-pyridyl)-5,5-dimethyl-6,6-dioxo-thiopyrano[4,3-b]pyridin-8-ol]
Injury evaluation, scale of 1-100, bleaching phenotype ([3]; 2.5 g/ha): 3 | Injury evaluation, scale of 1-100, bleaching phenotype ([3]; 10 g/ha): 3 | Injury evaluation, scale of 1-100, bleaching phenotype ([3]; 40 g/ha): 5 | Tolerance factor [1]: 3 | Injury evaluation, scale of 1-100, bleaching phenotype ([4]; 2.5 g/ha): 6 | Injury evaluation, scale of 1-100, bleaching phenotype ([4]; 10 g/ha): 4 | Injury evaluation, scale of 1-100, bleaching phenotype ([4]; 40 g/ha): 6 | Tolerance factor [2]: 1

Cc1c(C(=O)c2cnn(C)c2O)ccc(S(C)(=O)=O)c1C1=NOCC1 [Topramezone, reference compound]
Injury evaluation, scale of 1-100, bleaching phenotype ([3]; 6.25 g/ha): 2 | Injury evaluation, scale of 1-100, bleaching phenotype ([3]; 25 g/ha): 7 | Injury evaluation, scale of 1-100, bleaching phenotype ([3]; 100 g/ha): 14 | Injury evaluation, scale of 1-100, bleaching phenotype ([4]; 6.25 g/ha): 0 | Injury evaluation, scale of 1-100, bleaching phenotype ([4]; 25 g/ha): 0 | Injury evaluation, scale of 1-100, bleaching phenotype ([4]; 100 g/ha): 0

Source: patent US20140357487A1, “PLANTS HAVING INCREASED TOLERANCE TO HERBICIDES” (BASF SE, priority 2011, published 2014)
